Source: PubChem BioAssay (NCI)
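48-hour exposure; five concentrations; linearly interpolated endpoints. TGI: concentration producing complete growth inhibition.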

Legend:
Assay in all cases: inhibition of tumour cell growth, NCI panel, 48 h
MDA-N = test system: MDA-N
SN12C renal = test system: SN12C renal
HS 578T breast = test system: HS 578T breast
HL-60(TB) leukemia = test system: HL-60(TB) leukemia
HCT-15 colon = test system: HCT-15 colon
T-47D breast = test system: T-47D breast
HOP-92 NSCLC = test system: HOP-92 NSCLC
A498 renal = test system: A498 renal
786-0 renal = test system: 786-0 renal
K-562 leukemia = test system: K-562 leukemia
MALME-3M melanoma = test system: MALME-3M melanoma

SMILES	TGI (MDA-N)	TGI (SN12C renal)	TGI (HS 578T breast)	TGI (HL-60(TB) leukemia)	TGI (HCT-15 colon)	TGI (T-47D breast)	TGI (HOP-92 NSCLC)	TGI (A498 renal)	TGI (786-0 renal)	TGI (K-562 leukemia)	TGI (MALME-3M melanoma)
CC(C)OC(=O)c1ccc(NCC2=CC(=O)C=CC2=O)cc1Cl	25.2 µM	44.3 µM	> 100 µM	> 21.8 µM	18.6 µM	7.85 µM	14.4 µM	43.2 µM	> 48.3 µM	–	–
NNC(=O)CC(=O)Nc1ccc(Cl)cc1	> 100 µM	> 100 µM	> 100 µM	> 100 µM	> 100 µM	> 100 µM	> 100 µM	> 100 µM	> 100 µM	> 100 µM	> 100 µM
COc1ccc(-c2oc3ccc(C)cc3c(=O)c2O)cc1	> 100 µM	> 100 µM	> 100 µM	> 100 µM	> 100 µM	> 100 µM	> 100 µM	> 100 µM	> 100 µM	–	> 100 µM
O=C(CCc1cccc(O)c1)NCCc1cccc(O)c1	> 100 µM	> 100 µM	> 100 µM	> 100 µM	> 100 µM	> 100 µM	> 100 µM	> 100 µM	> 100 µM	> 100 µM	> 100 µM
COc1cc2c(cc1OCCCC(=O)Nc1cc(C(=O)Nc3cc(C(=O)Nc4cc(C(=O)NCCCN(C)C)n(C)c4)n(C)c3)n(C)c1)N=C[C@@H]1CCCN1C2=O	3.8 µM	2.63 µM	> 25.2 µM	3.42 µM	3.86 µM	4 µM	3.38 µM	26.4 µM	2.37 µM	> 100 µM	3.39 µM
COc1ccc(/C=N\N2CC(=O)N3C4C=CC(CC4)N3C2=O)cc1 (stereo unspecified)	> 100 µM	> 100 µM	> 100 µM	> 100 µM	> 100 µM	> 100 µM	> 100 µM	> 100 µM	> 100 µM	> 100 µM	–
Brc1ccc2c(-c3nc(-c4c[nH]c5ccccc45)cs3)c[nH]c2c1	> 100 µM	> 100 µM	> 100 µM	> 100 µM	> 100 µM	> 100 µM	> 100 µM	> 92.3 µM	81.1 µM	> 100 µM	> 100 µM
Cn1ccnc1CCc1ccc(F)cc1F	> 100 µM	> 100 µM	> 100 µM	> 100 µM	> 100 µM	> 100 µM	–	> 100 µM	> 100 µM	> 100 µM	> 100 µM
CCCC1NC(C#N)(C#N)C(CCC)NC1(C#N)C#N (stereo unspecified)	> 55 µM	> 37 µM	22.6 µM	0.343 µM	> 39.2 µM	> 71.5 µM	> 32.4 µM	> 96.4 µM	> 33.5 µM	> 77.6 µM	> 100 µM
COc1cc2c(cc1OC)C1CN3C(=O)CCC3C(O)C1c1cc(OC)c(OC)cc1-2 (stereo unspecified)	> 100 µM	> 100 µM	> 100 µM	> 100 µM	> 100 µM	> 100 µM	> 100 µM	> 100 µM	> 100 µM	> 100 µM	> 100 µM
COC(c1ccsc1)C(C#N)(C#N)N=Cc1ccsc1 (stereo unspecified)	33.4 µM	30.8 µM	61.7 µM	16.2 µM	25.9 µM	67.7 µM	27.1 µM	29.1 µM	37.9 µM	49.3 µM	29.8 µM
CCNc1nc(N)c(C(=O)c2ccc(Cl)cc2)s1	> 100 µM	> 100 µM	36.9 µM	36 µM	> 100 µM	> 100 µM	> 100 µM	70.3 µM	> 100 µM	> 100 µM	> 100 µM
CC(C)(C)c1cc(C(O)(C(=O)O)C(=O)O)cc(C(C)(C)C)c1O	> 100 µM	> 100 µM	> 100 µM	> 100 µM	> 100 µM	> 100 µM	> 100 µM	> 100 µM	> 100 µM	> 100 µM	> 100 µM
CCSc1ncnc2c(C3OC(CO)C(O)C3O)nsc12 (stereo unspecified)	> 100 µM	> 100 µM	> 100 µM	> 100 µM	> 100 µM	> 100 µM	> 100 µM	> 100 µM	–	> 100 µM	> 100 µM
CN(C(=O)C12C3C4(C(=O)O)C1(C(=O)N(C)C(C)(C)C)C1C2(C(=O)O)C3(C(=O)N(C)C(C)(C)C)C14C(=O)N(C)C(C)(C)C)C(C)(C)C (stereo unspecified)	> 100 µM	> 100 µM	> 100 µM	> 100 µM	> 100 µM	> 100 µM	> 100 µM	> 100 µM	> 100 µM	> 100 µM	–
CC1CN=C(Nc2cccc(C(F)(F)F)c2)S1 (stereo unspecified)	> 100 µM	–	> 100 µM	77 µM	> 100 µM	> 100 µM	–	> 100 µM	–	> 100 µM	> 100 µM
C=CCOc1ccc(C2c3c([nH][nH]c3=O)CC(O)(OCC)C2C(=O)OCC)cc1OC (stereo unspecified)	> 100 µM	> 100 µM	> 100 µM	> 100 µM	> 100 µM	> 100 µM	> 100 µM	> 100 µM	> 100 µM	–	> 100 µM
